Assay results: patent US5691319A, “Pyrimidine nucleoside derivatives having anti-tumor activity, their preparation and use” (Sankyo Company, Limited, priority 1991, dated 1997)

Legend:
mouse fibrosarcoma M5076 = test: Anti-tumor activity against M5076 fibrosarcoma (sc implanted, BDF1 mice); format: in vivo; settings: days 1, 4, 7, 10, 13 and 16; for 60 day survivors optimal dose / growth inhibition (%) optimal dose: oral; for 60 day survivors optimal dose: survivors/mice; for growth inhibition (%) optimal dose / growth inhibition (%) optimal dose/4: tumor size on twentieth day; for growth inhibition (%) optimal dose/4: optimal dose/4, oral
Protocol: The test animals used were female mice, 8-10 weeks old, of the BDF1 strain, weighing 20-25 g. The mice were purchased from Charles River Japan Inc., Kanagawa Japan. The mice were divided into experimental groups, each group containing 6 mice, and all mice within each group were treated identically. Each mouse was inoculated subcutaneously with 1×10^6 viable cells (the number of cells was measured by a dye exclusion method under microscopy) of the mouse fibrosarcoma M5076.
The test compounds listed in the following Table were dissolved in 0.2 ml of N,N-dimethylacetamide and the solution was mixed with 10% Emulphor (trade mark)-physiological saline on an agate mortar. The final concentration of N,N-dimethylacetamide was 5% v/v. The solution was administered orally on the first, fourth, seventh, tenth, thirteenth and sixteenth days following inoculation of the fibrosarcoma cells. The period for which the mice survived and the % inhibition of tumor growth were determined. A control group was not treated.
The anti-tumor effect is shown in the following Table 4 as the percent growth inhibition [GI (%)], calculated from the following equations [R. I. Geran et al., Cancer Chemother. Rept., 3 (1972)]:
TDt=average value of tumor sizes on the twentieth day in the treated group; and
TDc=average value of tumor sizes on the twentieth day in the control group;
tumor size=(tumor length+tumor width)/2.

p-388 leukemia = test: Anti-tumor activity against p-388 leukemia (ip implanted, CDF1 mice); format: in vivo; settings: for ILS (%) (increase in life span): days 1, 5 and 9; for 30 days survivors: days 1, 5 and 9, survivors/mice
Protocol: The test animals employed were female mice, 8 weeks of age, of the CDF1 strain, each weighing 21-25 g. The mice were divided into groups. each of 5 mice, and all mice within the group were treated identically. Into each mouse was implanted intraperitoneally 1×10^6 cells of the leukemia p-388.
The test compounds 1-9, 1-11, 1-15, 1-31 and 1-62 were dissolved in 0.2 ml of N,N-dimethylacetamide and the solution was mixed with 10% Emulphor (trade mark)-physiological saline on an agate mortar. Test compounds 1-34 and 1-41 were dissolved in a small amount of Tween 80 (registered trade mark) and immediately thereafter physiological saline was added to the solution form a suspension. The suspension was administered intraperitoneally on the first, fifth and ninth days following implantation of the leukemia cells. The period for which the mice survived was determined. A control group was treated identically, except that no active compound was administered.
The anti-tumor effect is shown in the following Table 3 as the increase in life span [ILS (%)], calculated from the following equation [R. I. Geran et al, Cancer Chemother. Rept., 3 (1972)]:
Dt=average number of days survival by the test group; and
Dc=average number of days survival by the control group.
In this test Dc was 9-10 days.

## CCCCCC(=O)Nc1ccn([C@@H]2O[C@H](CO)[C@@H](O)[C@@H]2C#N)c(=O)n1 [Compound 1-1, 2'-Cyano-2'-deoxy-N^4-hexanoyl-1-β-D-arabinofuranosylcytosine]
Mouse fibrosarcoma M5076
  60 day survivors optimal dose: 4/6
  growth inhibition (%) optimal dose: 97.7%
  growth inhibition (%) optimal dose/4: 61.1%

## CCCCCCCCCC(=O)Nc1ccn([C@@H]2O[C@H](CO)[C@@H](O)[C@@H]2C#N)c(=O)n1 [Compound 1-5, 2'-Cyano-N^4-decanoyl-2'-deoxy-1-β-D-arabinofuranosylcytosine]
Mouse fibrosarcoma M5076
  60 day survivors optimal dose: 3/6
  growth inhibition (%) optimal dose: 93.0%
  growth inhibition (%) optimal dose/4: 70.4%

## CCCCCCCCCCCCCC(=O)Nc1ccn([C@@H]2O[C@H](CO)[C@@H](O)[C@@H]2C#N)c(=O)n1 [Compound 1-9, 2'-Cyano-2'-deoxy-N^4-tetradecanoyl-1-β-D-arabinofuranosylcytosine]
p-388 leukemia; dose 200 mg/kg
  ILS (%) (increase in life span): > 200%
  30 days survivors: 4/5
Mouse fibrosarcoma M5076
  60 day survivors optimal dose: 5/6
  growth inhibition (%) optimal dose: 97.3%
  growth inhibition (%) optimal dose/4: 79.1%

## CCCCCCCCCCCCCCCC(=O)Nc1ccn([C@@H]2O[C@H](CO)[C@@H](O)[C@@H]2C#N)c(=O)n1 [Compound 1-11, 2'-Cyano-2'-deoxy-N^4-palmitoyl-1-β-D-arabinofuranosylcytosine]
p-388 leukemia; dose 50 mg/kg
  ILS (%) (increase in life span): 189%
  30 days survivors: 2/5
Mouse fibrosarcoma M5076
  60 day survivors optimal dose: 5/6
  growth inhibition (%) optimal dose: 99.2%
  growth inhibition (%) optimal dose/4: 90.2%

## CCCCCCCCCCCCCCCCCC(=O)Nc1ccn([C@@H]2O[C@H](CO)[C@@H](O)[C@@H]2C#N)c(=O)n1 [Compound 1-13, 2'-Cyano-2'-deoxy-N^4-stearoyl-1-β-D-arabinofuranosylcytosine]
Mouse fibrosarcoma M5076
  60 day survivors optimal dose: 4/6
  growth inhibition (%) optimal dose: 98.1%
  growth inhibition (%) optimal dose/4: 88.9%

## CCCCCCCCCCCCCCCCCCCC(=O)Nc1ccn([C@@H]2O[C@H](CO)[C@@H](O)[C@@H]2C#N)c(=O)n1 [Compound 1-15, 2'-Cyano-2'-deoxy-N^4-icosanoyl-1-β-D-arabinofuranosylcytosine]
p-388 leukemia; dose 100 mg/kg
  ILS (%) (increase in life span): 202%
  30 days survivors: 0/5
Mouse fibrosarcoma M5076
  60 day survivors optimal dose: 5/6
  growth inhibition (%) optimal dose: 96.5%
  growth inhibition (%) optimal dose/4: 88.7%

## COCOCCCCCCCCCC(=O)Nc1ccn([C@@H]2O[C@H](CO)[C@@H](O)[C@@H]2C#N)c(=O)n1 [Compound 1-31, 2'-Cyano-2'-deoxy-N^4-(10-methoxymethoxydecanoyl)-1-β-D-arabinofuranosylcytosine]
p-388 leukemia; dose 200 mg/kg
  ILS (%) (increase in life span): 152%
  30 days survivors: 0/5

## COCOCCCCCCCCCCCCCCCC(=O)Nc1ccn([C@@H]2O[C@H](CO)[C@@H](O)[C@@H]2C#N)c(=O)n1 [Compound 1-34, 2'-Cyano-2'-deoxy-N^4-(16-methoxymethoxyhexadecanoyl)-1-β-D-arabinofuranosylcytosine]
p-388 leukemia; dose 100 mg/kg
  ILS (%) (increase in life span): > 195%
  30 days survivors: 3/5
Mouse fibrosarcoma M5076
  60 day survivors optimal dose: 5/6
  growth inhibition (%) optimal dose: 96.0%
  growth inhibition (%) optimal dose/4: 87.2%

## COCCOCOCCCCCCCCCCCCCCCC(=O)Nc1ccn([C@@H]2O[C@H](CO)[C@@H](O)[C@@H]2C#N)c(=O)n1 [Compound 1-41, 2'-Cyano-2'-deoxy-N^4-(16-methoxyethoxymethoxyhexadecanoyl)-1-β-D-arabinofuranosylcytosine]
p-388 leukemia; dose 100 mg/kg
  ILS (%) (increase in life span): 159%
  30 days survivors: 2/5
Mouse fibrosarcoma M5076
  60 day survivors optimal dose: 5/6
  growth inhibition (%) optimal dose: 99.2%
  growth inhibition (%) optimal dose/4: 76.2%

## N#CCCCCCCCCCCC(=O)Nc1ccn([C@@H]2O[C@H](CO)[C@@H](O)[C@@H]2C#N)c(=O)n1 [Compound 1-62, 2'-Cyano-N^4-(11-cyanoundecanoyl)-2'-deoxy-1-β-D-arabinofuranosylcytosine]
p-388 leukemia; dose 200 mg/kg
  ILS (%) (increase in life span): 159%
  30 days survivors: 0/5
Mouse fibrosarcoma M5076
  60 day survivors optimal dose: 6/6
  growth inhibition (%) optimal dose: 99.0%
  growth inhibition (%) optimal dose/4: 83.3%
